Assay results as given in ChEMBL document CHEMBL1130059, “Neurotrophic 3,9-bis[(alkylthio)methyl]-and-bis(alkoxymethyl)-K-252a derivatives” (J Med Chem, 1997).
Values belong to the compound of their own block, whether it stands above or below them.

Columns and labels:
[1] = target: T1, Choline O-acetyltransferase (Rattus norvegicus) (UniProt P32738); test: Neurotrophic activity as measured by the ability to enhance basal forebrain choline acetyl transferase at 50 nM; format: functional
T1 sequence (whole entry): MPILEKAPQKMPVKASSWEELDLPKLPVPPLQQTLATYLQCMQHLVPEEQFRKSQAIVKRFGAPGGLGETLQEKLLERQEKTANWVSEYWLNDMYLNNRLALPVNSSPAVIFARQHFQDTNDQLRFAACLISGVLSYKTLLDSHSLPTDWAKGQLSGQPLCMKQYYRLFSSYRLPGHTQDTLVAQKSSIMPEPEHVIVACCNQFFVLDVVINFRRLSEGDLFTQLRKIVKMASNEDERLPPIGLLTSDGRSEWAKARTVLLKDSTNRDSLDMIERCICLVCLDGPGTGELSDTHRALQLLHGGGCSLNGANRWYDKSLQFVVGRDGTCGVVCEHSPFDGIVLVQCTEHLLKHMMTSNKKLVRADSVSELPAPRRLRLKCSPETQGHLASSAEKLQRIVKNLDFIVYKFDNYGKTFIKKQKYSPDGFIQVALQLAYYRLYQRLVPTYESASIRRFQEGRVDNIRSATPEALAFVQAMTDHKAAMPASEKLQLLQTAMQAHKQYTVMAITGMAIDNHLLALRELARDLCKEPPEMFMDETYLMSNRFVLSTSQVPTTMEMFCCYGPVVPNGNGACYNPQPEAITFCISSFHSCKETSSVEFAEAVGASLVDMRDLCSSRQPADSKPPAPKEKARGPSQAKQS

[2] = target: T1, Choline O-acetyltransferase (Rattus norvegicus); test: Neurotrophic activity as measured by the ability to enhance embryonic rat spinal cord choline acetyl transferase at 300 nM; format: functional
[3] = target: T1, Choline O-acetyltransferase (Rattus norvegicus); test: Neurotrophic activity as measured by the ability to enhance embryonic rat spinal cord choline acetyl transferase at 30 nM; format: functional
[4] = target: High affinity nerve growth factor receptor (Homo sapiens, UniProt P04629); test: Ability to inhibit human trk A tyrosine kinase expressed in baculovirus using ELISA based enzyme assay was determined
High affinity nerve growth factor receptor, sequence (P04629 whole entry): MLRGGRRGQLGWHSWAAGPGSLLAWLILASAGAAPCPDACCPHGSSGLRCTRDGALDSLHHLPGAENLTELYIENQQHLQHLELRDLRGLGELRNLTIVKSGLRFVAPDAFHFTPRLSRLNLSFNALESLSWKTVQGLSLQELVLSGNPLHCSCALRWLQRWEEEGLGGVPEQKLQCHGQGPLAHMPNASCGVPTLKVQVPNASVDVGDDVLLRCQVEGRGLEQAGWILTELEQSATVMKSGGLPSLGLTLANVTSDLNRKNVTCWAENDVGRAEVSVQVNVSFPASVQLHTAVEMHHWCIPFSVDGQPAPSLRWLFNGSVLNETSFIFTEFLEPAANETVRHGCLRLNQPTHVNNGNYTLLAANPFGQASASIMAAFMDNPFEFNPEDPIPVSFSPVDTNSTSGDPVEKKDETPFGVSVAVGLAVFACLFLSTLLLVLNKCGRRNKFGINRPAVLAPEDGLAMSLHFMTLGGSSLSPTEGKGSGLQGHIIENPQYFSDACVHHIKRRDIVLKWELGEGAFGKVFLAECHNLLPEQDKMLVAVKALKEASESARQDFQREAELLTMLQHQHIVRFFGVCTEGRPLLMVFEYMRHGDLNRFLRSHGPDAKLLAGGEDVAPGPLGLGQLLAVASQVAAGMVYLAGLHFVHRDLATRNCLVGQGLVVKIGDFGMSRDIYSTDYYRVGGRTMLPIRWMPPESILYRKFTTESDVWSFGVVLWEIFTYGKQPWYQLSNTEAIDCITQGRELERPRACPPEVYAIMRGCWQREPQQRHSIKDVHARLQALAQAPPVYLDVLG

[5] = target: T1, Choline O-acetyltransferase (Rattus norvegicus); test: Neurotrophic activity as measured by the ability to enhance basal forebrain choline acetyl transferase at 250 nM; format: functional
[6] = target: cAMP-dependent protein kinase alpha-catalytic subunit (Oryctolagus cuniculus, UniProt Q95J97); test: Inhibition of cAMP dependent Protein kinase A of rabbit Skeletal Muscle.
[7] = target: Myosin light chain kinase, smooth muscle (Gallus gallus, UniProt P11799); test: Inhibition of Smooth muscle myosin light chain kinase of chicken gizzard
Myosin light chain kinase, smooth muscle, sequence (P11799 whole entry): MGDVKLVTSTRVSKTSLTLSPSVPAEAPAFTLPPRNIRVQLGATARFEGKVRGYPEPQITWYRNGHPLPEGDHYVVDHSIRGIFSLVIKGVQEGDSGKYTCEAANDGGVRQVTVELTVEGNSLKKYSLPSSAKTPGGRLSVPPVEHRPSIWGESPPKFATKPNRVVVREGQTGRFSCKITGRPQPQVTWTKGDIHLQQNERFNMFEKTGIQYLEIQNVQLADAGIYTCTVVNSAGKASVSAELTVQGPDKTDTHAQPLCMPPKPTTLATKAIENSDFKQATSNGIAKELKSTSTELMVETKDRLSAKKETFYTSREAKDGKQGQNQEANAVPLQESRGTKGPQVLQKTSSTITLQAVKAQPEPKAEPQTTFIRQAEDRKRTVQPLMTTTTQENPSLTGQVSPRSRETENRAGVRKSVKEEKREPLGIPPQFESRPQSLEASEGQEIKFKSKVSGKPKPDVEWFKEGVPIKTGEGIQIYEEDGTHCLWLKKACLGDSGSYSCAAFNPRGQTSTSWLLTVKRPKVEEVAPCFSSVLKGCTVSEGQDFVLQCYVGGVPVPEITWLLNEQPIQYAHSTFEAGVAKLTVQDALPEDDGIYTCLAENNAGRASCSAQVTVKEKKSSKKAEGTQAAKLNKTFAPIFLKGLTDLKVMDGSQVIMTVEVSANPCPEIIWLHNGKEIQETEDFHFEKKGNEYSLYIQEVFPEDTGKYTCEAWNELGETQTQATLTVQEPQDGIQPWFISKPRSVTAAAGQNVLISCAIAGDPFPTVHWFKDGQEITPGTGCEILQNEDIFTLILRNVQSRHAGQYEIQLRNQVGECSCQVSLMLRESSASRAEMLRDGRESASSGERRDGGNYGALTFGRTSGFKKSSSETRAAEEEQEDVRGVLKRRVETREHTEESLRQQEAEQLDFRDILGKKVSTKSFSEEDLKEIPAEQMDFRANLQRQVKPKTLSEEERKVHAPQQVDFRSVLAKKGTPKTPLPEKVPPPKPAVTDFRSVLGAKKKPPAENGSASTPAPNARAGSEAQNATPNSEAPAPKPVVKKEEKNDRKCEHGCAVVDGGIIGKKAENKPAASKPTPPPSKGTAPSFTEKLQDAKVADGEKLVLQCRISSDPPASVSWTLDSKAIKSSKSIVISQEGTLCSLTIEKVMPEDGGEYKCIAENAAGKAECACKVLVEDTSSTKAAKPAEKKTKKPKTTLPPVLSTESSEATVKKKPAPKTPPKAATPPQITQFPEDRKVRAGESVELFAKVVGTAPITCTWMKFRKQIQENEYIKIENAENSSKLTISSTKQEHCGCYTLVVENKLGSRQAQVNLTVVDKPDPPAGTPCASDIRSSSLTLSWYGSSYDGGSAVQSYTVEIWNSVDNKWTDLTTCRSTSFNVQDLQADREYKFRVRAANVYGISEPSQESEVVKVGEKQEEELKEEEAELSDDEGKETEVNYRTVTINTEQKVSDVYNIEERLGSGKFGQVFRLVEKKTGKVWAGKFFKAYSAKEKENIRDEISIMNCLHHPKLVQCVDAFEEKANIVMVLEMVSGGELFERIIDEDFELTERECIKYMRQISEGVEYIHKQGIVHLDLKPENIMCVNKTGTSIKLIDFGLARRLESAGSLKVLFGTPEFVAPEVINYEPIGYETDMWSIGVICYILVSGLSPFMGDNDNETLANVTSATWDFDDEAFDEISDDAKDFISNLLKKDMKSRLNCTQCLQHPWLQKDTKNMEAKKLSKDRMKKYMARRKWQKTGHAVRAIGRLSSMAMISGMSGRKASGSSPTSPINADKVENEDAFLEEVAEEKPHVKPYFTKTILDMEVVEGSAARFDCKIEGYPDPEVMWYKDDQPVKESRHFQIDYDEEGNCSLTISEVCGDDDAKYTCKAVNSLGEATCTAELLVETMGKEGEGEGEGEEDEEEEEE

[8] = target: Protein kinase C (PKC); test: Inhibition of Protein kinase C of Rat brain

SMILES: COC(=O)[C@@]1(O)CC2O[C@]1(C)n1c3ccc(CSC(C)C)cc3c3c4c(c5c6cc(CSC(C)C)ccc6n2c5c31)C(=O)NC4
Control [1]: 224% | Control [2]: 289% | Control [3]: < 120% | IC50 [4]: > 1000 nM

SMILES: COC(=O)[C@@]1(O)C[C@H]2O[C@]1(C)n1c3ccccc3c3c4c(c5c6ccccc6n2c5c31)C(=O)NC4 [K-252A]
Control [5]: 325% | Control [1]: 148% | Control [2]: 186% | Control [3]: < 120% | IC50 [6]: 16 nM | IC50 [7]: 20 nM

SMILES: COCc1ccc2c(c1)c1c3c(c4c5cc(COC)ccc5n5c4c1n2C1C[C@](O)(C(=O)OC)[C@]5(C)O1)CNC3=O
Control [5]: 340% | Control [1]: 168% | Control [2]: 218% | Control [3]: 193% | IC50 [4]: 270 nM

Control [5]: 158% | Control [1]: < 120% | Control [2]: 208% | Control [3]: < 120%
SMILES: COC(=O)[C@@]1(O)CC2O[C@]1(C)n1c3ccc(CSCCN(C)C)cc3c3c4c(c5c6cc(CSCCN(C)C)ccc6n2c5c31)C(=O)NC4

SMILES: C=CCSCc1ccc2c(c1)c1c3c(c4c5cc(CSCC=C)ccc5n5c4c1n2C1C[C@](O)(C(=O)OC)[C@]5(C)O1)CNC3=O
Control [5]: 191% | Control [1]: < 120% | Control [2]: 302% | Control [3]: < 120% | IC50 [4]: > 1000 nM

Control [2]: < 120% | Control [3]: < 120%
SMILES: COC(=O)[C@@]1(O)CC2O[C@]1(C)n1c3ccc(CO)cc3c3c4c(c5c6cc(CO)ccc6n2c5c31)C(=O)NC4

SMILES: CCCCSCc1ccc2c(c1)c1c3c(c4c5cc(CSCCCC)ccc5n5c4c1n2C1C[C@](O)(C(=O)OC)[C@]5(C)O1)CNC3=O
Control [5]: 200% | Control [1]: 143% | Control [2]: 289% | Control [3]: < 120% | IC50 [4]: > 1000 nM

SMILES: CCCSCc1ccc2c(c1)c1c3c(c4c5cc(CSCCC)ccc5n5c4c1n2C1C[C@](O)(C(=O)OC)[C@]5(C)O1)CNC3=O
Control [5]: 180% | Control [1]: < 120% | Control [2]: 315% | Control [3]: < 120% | IC50 [4]: > 1000 nM

SMILES: CCOCc1ccc2c(c1)c1c3c(c4c5cc(COCC)ccc5n5c4c1n2C1C[C@](O)(C(=O)OC)[C@]5(C)O1)CNC3=O
Control [5]: 237% | Control [1]: < 120% | Control [2]: 188% | Control [3]: 153% | IC50 [4]: 210 nM

SMILES: CCSCc1ccc2c(c1)c1c3c(c4c5cc(CSCC)ccc5n5c4c1n2C1C[C@](O)(C(=O)OC)[C@]5(C)O1)CNC3=O
Control [5]: 363% | Control [1]: 143% | Control [2]: 280% | Control [3]: 140% | IC50 [8]: 16300 nM | IC50 [6]: > 10000 nM | IC50 [7]: > 10000 nM | IC50 [4]: > 1000 nM
